Laboratory results taken from ChEMBL document CHEMBL1201862, “PubChem BioAssay data set” (2004).
The source made the active and inactive calls.

Experiments:
Cytochrome P450 2D6 = Cytochrome P450 2D6 (Homo sapiens, UniProt P10635);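 note: CYP2D6 member of a cytochrome P450 panel assay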
Cytochrome P450 2C9 = Cytochrome P450 2C9 (Homo sapiens, UniProt P11712)
Cytochrome P450 2C19 = Cytochrome P450 2C19 (Homo sapiens, UniProt P33261); assay: Cytochrome panel assay with activity outcomes. Panel member name: p450-cyp2c19 Compounds with AC50 equal or less than 10 uM are considered active; type: functional; settings: read-out: AC50
Sequence of Cytochrome P450 2C19 (P33261 whole entry): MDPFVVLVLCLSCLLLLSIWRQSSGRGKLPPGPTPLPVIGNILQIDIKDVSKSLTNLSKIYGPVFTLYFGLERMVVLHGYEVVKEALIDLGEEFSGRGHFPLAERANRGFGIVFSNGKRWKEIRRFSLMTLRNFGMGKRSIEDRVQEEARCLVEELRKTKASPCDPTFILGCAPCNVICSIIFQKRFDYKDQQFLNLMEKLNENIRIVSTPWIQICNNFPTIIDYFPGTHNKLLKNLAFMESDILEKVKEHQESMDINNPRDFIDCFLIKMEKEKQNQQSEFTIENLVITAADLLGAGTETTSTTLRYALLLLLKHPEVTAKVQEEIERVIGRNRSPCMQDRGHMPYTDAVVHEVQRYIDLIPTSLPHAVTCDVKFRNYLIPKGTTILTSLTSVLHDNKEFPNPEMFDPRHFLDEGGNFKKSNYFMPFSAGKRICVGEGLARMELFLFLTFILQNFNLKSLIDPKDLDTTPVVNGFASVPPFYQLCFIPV

Cytochrome P450 3A4 = Cytochrome P450 3A4 (Homo sapiens, UniProt P08684);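 note: CYP3A4 tested as one member of a cytochrome P450 panel screen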
Sequence of Cytochrome P450 3A4 (P08684 whole entry): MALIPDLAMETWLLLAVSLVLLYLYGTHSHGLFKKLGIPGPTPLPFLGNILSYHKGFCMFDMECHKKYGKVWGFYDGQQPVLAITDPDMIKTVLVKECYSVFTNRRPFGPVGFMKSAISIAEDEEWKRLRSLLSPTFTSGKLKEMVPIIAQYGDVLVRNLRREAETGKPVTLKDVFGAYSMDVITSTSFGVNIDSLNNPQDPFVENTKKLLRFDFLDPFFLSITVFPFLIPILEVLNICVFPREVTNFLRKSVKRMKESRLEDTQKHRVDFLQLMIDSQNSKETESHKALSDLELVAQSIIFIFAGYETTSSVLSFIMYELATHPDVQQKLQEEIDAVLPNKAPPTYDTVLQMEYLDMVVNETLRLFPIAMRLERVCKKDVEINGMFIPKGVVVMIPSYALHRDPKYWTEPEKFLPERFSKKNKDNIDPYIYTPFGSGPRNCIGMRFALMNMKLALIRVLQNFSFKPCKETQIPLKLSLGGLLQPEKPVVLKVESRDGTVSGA

Cytochrome P450 1A2 = biological target: T1, Cytochrome P450 1A2 (Homo sapiens, UniProt P05177);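 note: PubChem cytochrome P450 panel assay, CYP1A2 panel member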
T1 sequence (P05177 whole entry): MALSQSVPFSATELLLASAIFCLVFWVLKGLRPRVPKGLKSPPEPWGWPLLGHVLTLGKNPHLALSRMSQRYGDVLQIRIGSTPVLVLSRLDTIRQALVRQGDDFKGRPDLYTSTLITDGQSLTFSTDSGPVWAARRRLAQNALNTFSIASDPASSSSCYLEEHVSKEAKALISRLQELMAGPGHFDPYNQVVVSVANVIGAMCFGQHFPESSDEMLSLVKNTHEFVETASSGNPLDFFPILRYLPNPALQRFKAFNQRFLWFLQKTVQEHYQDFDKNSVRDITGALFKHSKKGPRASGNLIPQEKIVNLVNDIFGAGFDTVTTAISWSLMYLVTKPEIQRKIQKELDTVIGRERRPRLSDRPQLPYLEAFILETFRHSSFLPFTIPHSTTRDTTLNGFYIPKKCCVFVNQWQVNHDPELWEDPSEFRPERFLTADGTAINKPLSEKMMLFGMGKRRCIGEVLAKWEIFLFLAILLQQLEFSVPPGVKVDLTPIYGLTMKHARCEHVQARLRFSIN

[1] = alpha-synuclein stem-loop luciferase translation blockers – H4 neuroglioma cells, luminescence, confirmation (AID 1988); type: functional, cell-based
[2] = Luminescence Cell-Based Dose Retest to Confirm Inhibitors of Cancer Stem Cells. [Related pubchem assays (depositor defined):AID2717, AID2721]; type: functional; settings: Homo sapiens
[3] = luciferase reporter signal suppression in cells – H4 neuroglioma cells, luminescence, dose response (AID 1990); type: functional, cell-based
[4] = Luminescence Cell-Based Dose Response HTS to Identify Inhibitors of 5'UTR Stem-Loop Driven Prion Protein mRNA Translation in H4 Neuroglioblastoma Cells. [Related pubchem assays: 1827 (Project Summary), 1813 (Primary HTS)]; type: functional
Streptococcus = assay: GAS UMAA2166 growth inhibition – luminescence, BacTiterGlo, counter-screen for streptokinase expression inhibitor project, dose response (AID 1915); type: functional, organism-based;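 note: potency for reduction of bacterial viability or growth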
Streptokinase A = biological target: T2, Streptokinase A (Streptococcus pyogenes serotype M1, UniProt P10520); assay: viability-normalized secreted streptokinase activity reduction – plasminogen activation absorbance, OD405, dose response (AID 1914); type: functional, Streptococcus pyogenes M1 GAS;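 note: secreted streptokinase activity via plasminogen activation per viability signal from cell pellet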
T2 sequence (P10520 whole entry): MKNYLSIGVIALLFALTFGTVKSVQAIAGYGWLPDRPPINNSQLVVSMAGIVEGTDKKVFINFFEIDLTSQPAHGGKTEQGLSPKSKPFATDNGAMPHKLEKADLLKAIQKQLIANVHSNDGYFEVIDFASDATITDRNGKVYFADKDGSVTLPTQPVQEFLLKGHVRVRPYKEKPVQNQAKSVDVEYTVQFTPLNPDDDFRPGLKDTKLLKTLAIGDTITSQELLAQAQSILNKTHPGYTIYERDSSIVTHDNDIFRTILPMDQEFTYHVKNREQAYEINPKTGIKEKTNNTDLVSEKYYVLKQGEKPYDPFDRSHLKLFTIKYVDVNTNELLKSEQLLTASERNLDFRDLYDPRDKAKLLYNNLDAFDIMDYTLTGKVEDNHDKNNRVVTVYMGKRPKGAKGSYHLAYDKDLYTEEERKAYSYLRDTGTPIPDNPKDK

[5] = tested on: Streptococcus sp. 'group A'; assay: Streptococcus pyogenes SK(-)GAS viability under kanamycin – luminescence, BacTiterGlo, confirmation, counter-screen for streptokinase expression inhibitor project, dose response (AID 1900); type: functional, organism-based
[6] = NIH3T3 cell viability loss – ATP luminescence, mouse fibroblasts, counter-screen, dose response (AID 2010); type: functional, cell-based;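 note: cells exposed to compound for about 90 hours before reading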
[7] = Trypanosoma cruzi growth suppression in host cells – NIH3T3 host cells, beta-gal luminescence, confirmation (AID 2044); type: functional, cell-based;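 note: intracellular parasites grown in NIH/3T3 mouse fibroblasts as host cells; luminescent beta-galactosidase reporter signal from transgenic T. cruzi replicating inside host cells; inhibitors lower the luminescence signal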
INS1 = assay: INS-1E survival protection against cytokine death – cell-based, luminescence, retest, dose response (AID 449756); type: functional; settings: Rattus norvegicus;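 note: cell death triggered by IL-1 beta plus TNF-alpha plus IFN-gamma mixture; protective hits raise ATP signal compared with cytokine alone wells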

Sequence of Cytochrome P450 2C9 (P11712 whole entry): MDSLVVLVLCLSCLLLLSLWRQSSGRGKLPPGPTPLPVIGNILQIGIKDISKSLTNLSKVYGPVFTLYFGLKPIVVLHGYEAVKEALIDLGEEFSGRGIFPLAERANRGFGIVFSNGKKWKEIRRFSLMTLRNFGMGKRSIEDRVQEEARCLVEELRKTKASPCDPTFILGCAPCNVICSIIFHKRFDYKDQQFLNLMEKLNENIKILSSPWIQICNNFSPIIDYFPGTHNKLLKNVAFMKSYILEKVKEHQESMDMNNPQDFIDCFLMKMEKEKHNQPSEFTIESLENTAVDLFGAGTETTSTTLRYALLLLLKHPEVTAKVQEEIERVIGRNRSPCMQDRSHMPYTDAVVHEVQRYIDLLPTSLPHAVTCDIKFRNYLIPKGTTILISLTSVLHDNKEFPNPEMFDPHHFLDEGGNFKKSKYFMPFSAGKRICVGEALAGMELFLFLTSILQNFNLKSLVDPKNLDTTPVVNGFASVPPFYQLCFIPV
Sequence of Cytochrome P450 2D6 (P10635 whole entry): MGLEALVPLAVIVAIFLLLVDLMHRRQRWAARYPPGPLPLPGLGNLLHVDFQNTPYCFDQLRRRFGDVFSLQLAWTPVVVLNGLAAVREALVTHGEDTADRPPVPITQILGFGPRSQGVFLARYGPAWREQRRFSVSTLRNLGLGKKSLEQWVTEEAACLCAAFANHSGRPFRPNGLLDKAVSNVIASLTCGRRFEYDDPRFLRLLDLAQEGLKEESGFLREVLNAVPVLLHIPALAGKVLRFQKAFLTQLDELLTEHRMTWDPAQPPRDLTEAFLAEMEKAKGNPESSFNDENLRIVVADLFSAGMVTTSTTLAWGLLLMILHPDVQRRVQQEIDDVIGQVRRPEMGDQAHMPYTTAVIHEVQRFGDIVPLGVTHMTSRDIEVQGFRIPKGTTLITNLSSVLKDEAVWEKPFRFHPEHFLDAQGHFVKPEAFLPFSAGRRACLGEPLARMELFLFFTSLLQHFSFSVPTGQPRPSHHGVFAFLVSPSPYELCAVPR

O=P(c1ccccc1)(c1ccccc1)N1CC2(CC2)CC(O)(c2ccccc2)C1 (centres undefined)
AC50 (Cytochrome P450 2D6): 20 µM (inconclusive) | AC50 (Cytochrome P450 2C9): 39.8 µM (inconclusive)

COc1ccc2nc(O)c(CN(CCO)C(=O)c3cccs3)cc2c1
AC50 (Cytochrome P450 2C19): 31.6 µM (inconclusive) | AC50 (Cytochrome P450 3A4): 15.8 µM (inconclusive) | AC50 (Cytochrome P450 1A2): 20 µM (inconclusive)

O=c1cc(CNc2cc(C(F)(F)F)cc(C(F)(F)F)c2)nc2sccn12
EC50 [1]: > 120 µM (not active) | AC50 [2]: 1.99 µM (active) | EC50 [3]: 17.5 µM (active) | EC50 [4]: 39.2 µM (active)

CCCC[N+]1(C)[C@@H]2CC(OC(=O)[C@@H](CO)c3ccccc3)C[C@H]1[C@H]1O[C@H]12 (some centres undefined)
AC50 (Cytochrome P450 2D6): 7.94 µM (inconclusive)

CCCN1CC[C@@H]2c3cc(O)ccc3CC[C@H]21
AC50 (Cytochrome P450 2D6): 31.6 µM (inconclusive)

CCN(CC)C(=O)CSc1nnc(-c2ccncc2)n1N
AC50 (Cytochrome P450 2D6): 17.8 µM (inconclusive) | AC50 (Cytochrome P450 2C9): 31.6 µM (inconclusive)

C[C@@H](CN1CCC(Cc2ccccc2)CC1)[C@@H](O)c1ccc(O)cc1
AC50 (Cytochrome P450 1A2): 39.8 µM (inconclusive)

COC(=O)C1=C(C)N=C2SC(C)C(=O)N2C1/C=C/c1ccccc1 (centres undefined)
AC50 (Cytochrome P450 2D6): 28.2 µM (inconclusive)

CN1CCN(c2ncc3nc(-c4ccccc4)c(=O)n(C)c3n2)CC1
AC50 (Cytochrome P450 1A2): 15.8 µM (inconclusive)

Cc1ccc(O)c(C(=O)c2cc(C#N)c(=O)n(-c3c(C)n(C)n(-c4ccccc4)c3=O)c2)c1
AC50 (Cytochrome P450 2D6): 10 µM (inconclusive)

NC(=O)OCC(COC(N)=O)c1ccccc1 [FELBAMATE]
AC50 (Cytochrome P450 1A2): 39.8 µM (inconclusive)

Cc1cccc(NCCNc2cccc(C)c2)c1
AC50 (Cytochrome P450 2D6): 12.6 µM (inconclusive) | AC50 (Cytochrome P450 2C9): 17.8 µM (inconclusive)

O=C(c1nc2ccc(Cl)cn2c1CN1CCC(CO)CC1)N1CCc2ccccc2C1
EC50 (Streptococcus): > 150 µM (not active) | EC50 (Streptokinase A): > 150 µM (not active) | EC50 [5]: > 150 µM (not active)

COc1ccc(NC(=O)N2CCC3(CC2)CCN(S(=O)(=O)c2ccccc2)CC3)cc1
AC50 (Cytochrome P450 3A4): 20 µM (inconclusive) | AC50 (Cytochrome P450 1A2): 31.6 µM (inconclusive) | AC50 (Cytochrome P450 2D6): 25.1 µM (inconclusive)

Cc1cc(C(C)(C)C)ccc1OCCCCN1CCCC1
AC50 [2]: 2.57 µM (active)

O=C(Nc1cccc(F)c1)N1CC[C@@]2(CCCN(S(=O)(=O)c3ccccc3)C2)C1
AC50 (Cytochrome P450 1A2): 15.8 µM (inconclusive) | AC50 (Cytochrome P450 2D6): 39.8 µM (inconclusive)

Cc1sc2ncnc(SCC(=O)N3CCCC(C(F)(F)F)C3)c2c1C (centres undefined)
EC50 (Streptococcus): > 150 µM (not active) | EC50 (Streptokinase A): > 150 µM (not active) | EC50 [5]: > 150 µM (not active)

Cc1ccccc1C(=O)N=c1nc(S)ss1
EC50 (Streptococcus): 36.5 µM (active) | EC50 (Streptokinase A): 2.04 µM (active) | EC50 [5]: 2.81 µM (active)

O=C(CC1NCCc2ccccc21)Nc1ccc(Oc2ccccc2)cc1 (centres undefined)
AC50 [2]: 7.35 µM (active)

Cc1ccc(NC(=O)Nc2cccc([N+](=O)[O-])c2)cc1F
EC50 [6]: > 60 µM (not active) | EC50 [7]: 2.49 µM (active) | AC50 (INS1): 6.65 µM (active)

Oc1c(Cl)cc(CN(Cc2cc(Cl)c(O)c(Cl)c2)C2CCCCC2)cc1Cl
AC50 (Cytochrome P450 2D6): 5.01 µM (inconclusive) | AC50 (Cytochrome P450 2C9): 3.98 µM (inconclusive)

CC(CNC(=O)c1ccc(OC2CCN(Cc3ccccn3)CC2)cc1)Oc1cccnc1 (centres undefined)
AC50 (INS1): 5.59 µM (active)

CCCOc1c(Cl)cc(C(=O)Nc2ccc3c(c2)OCO3)cc1OCC
AC50 [2]: 2.39 µM (active)

O=C(NCCN1CCCC1)C1(S(=O)(=O)c2ccc(Cl)cc2)CC1
AC50 (Cytochrome P450 2C19): 25.1 µM (inconclusive) | AC50 (Cytochrome P450 3A4): 39.8 µM (inconclusive) | AC50 (Cytochrome P450 2D6): 12.6 µM (inconclusive)

COc1ccc(/C=C(/C#N)C(=O)Nc2cc(C)ccc2C)cc1C(=O)O
AC50 (Cytochrome P450 2D6): 25.1 µM (inconclusive)

Cn1cccc1C1C=C(c2ccc(C(C)(C)C)cc2)Nc2ncnn21 (centres undefined)
AC50 (INS1): 3.45 µM (active)

CCSc1nnc(C(N)Cc2ccccc2)o1 (centres undefined)
AC50 (Cytochrome P450 2C19): 28.2 µM (inconclusive) | AC50 (Cytochrome P450 2D6): 17.8 µM (inconclusive) | AC50 (Cytochrome P450 2C9): 2.24 µM (inconclusive)

CCN(Cc1ccccc1)c1ccc(/C=N/NC(=S)NC(C)C)cc1
AC50 [2]: 31.1 µM (active)

COc1ccccc1C1(CC(=O)Nc2nccs2)CCOC(C(C)C)C1 (centres undefined)
AC50 (Cytochrome P450 1A2): 5.62 µM (inconclusive) | AC50 (Cytochrome P450 2D6): 22.4 µM (inconclusive)

Cc1ccc(NC(=O)c2c(C(F)(F)F)nn(C)c2SCc2cccc(C(F)(F)F)c2)cc1C
EC50 [6]: > 60 µM (inconclusive) | AC50 (Cytochrome P450 2D6): 14.1 µM (inconclusive) | EC50 [7]: 2.52 µM (active) | AC50 (INS1): 5.94 µM (active)

COC(=O)c1ccc(NC(=O)c2cccnc2)cc1
AC50 (INS1): 5.28 µM (active)

O=C(CCC(=O)Nc1ccc(Br)cc1)N/N=C/c1ccccc1O
EC50 (Streptococcus): 14.3 µM (active) | EC50 [1]: 8.55 µM (active) | EC50 (Streptokinase A): > 150 µM (not active) | EC50 [5]: 5.1 µM (active) | EC50 [3]: 12.6 µM (active) | EC50 [4]: 33.8 µM (active) | AC50 (INS1): 3.65 µM (active)

O=C(O)/C=C\C=C/c1ccc2c(c1)OCO2
AC50 (Cytochrome P450 1A2): 1.58 µM (inconclusive)

O=c1[nH]c2cc(Cl)ccc2c(O)c1-c1cccc(Oc2ccccc2)c1
AC50 (Cytochrome P450 2C19): 31.6 µM (inconclusive) | AC50 (Cytochrome P450 1A2): 2.51 µM (inconclusive)

c1cnc(N2CCC3(CCNCC3)CC2)nc1
AC50 (Cytochrome P450 3A4): 20 µM (inconclusive) | AC50 (Cytochrome P450 2D6): 10 µM (inconclusive)

COc1cccc(C(=O)Nc2nnc(-c3cccs3)o2)c1
EC50 (Streptococcus): 18.9 µM (active) | EC50 (Streptokinase A): > 150 µM (not active) | EC50 [5]: 9.25 µM (active)

C=CCC[C@H](Cc1ccc(F)cc1)C(=O)O[C@H](CNC(=O)[C@@H](CC=C)CC(=O)N(CCO)Cc1ccccc1)c1ccccc1
AC50 [2]: 7.34 µM (active)

Cc1nn(Cc2ccc(Cl)cc2Cl)c(C)c1NC(=O)c1sc2ccccc2c1Cl
AC50 (Cytochrome P450 2C19): 22.4 µM (inconclusive) | AC50 (Cytochrome P450 1A2): 25.1 µM (inconclusive) | AC50 (Cytochrome P450 2C9): 1.78 µM (inconclusive)

COc1cccc2[nH]c3c(N4CC(C)CC(C)C4)ncnc3c12 (centres undefined)
EC50 [6]: > 60 µM (not active) | AC50 (Cytochrome P450 3A4): 0.891 µM (inconclusive) | EC50 [7]: 1.39 µM (active)

N#Cc1c(NC(=O)Cn2c(=O)oc3ccccc32)oc(-c2ccccc2)c1-c1ccccc1
AC50 [2]: 1.97 µM (active)

CCCN(CCC)CCCNC(=O)c1ccc2c(c1)N(CC)C(=O)c1ccccc1[S+]2[O-] (centres undefined)
AC50 (Cytochrome P450 1A2): 0.01 µM (inconclusive) | AC50 (Cytochrome P450 2D6): 22.4 µM (inconclusive)

Nc1c(Cl)cc(-c2csc(N3CCCC3c3nc4cc(Cl)c(Cl)cc4n3CCOCCO)n2)cc1Cl (centres undefined)
EC50 (Streptococcus): > 150 µM (not active) | EC50 (Streptokinase A): > 150 µM (not active) | EC50 [5]: > 150 µM (not active)

Fc1cc(F)c(C2SCCN2C(=S)Nc2cccc(C(F)(F)F)c2)c(F)c1 (centres undefined)
EC50 (Streptococcus): > 150 µM (not active) | EC50 (Streptokinase A): 11.1 µM (active) | EC50 [5]: 6.86 µM (active)

Oc1cc(-c2ccc(N3CCCCC3)nc2)cc2cccnc12
AC50 (INS1): 3.18 µM (active)

Cc1nnc(NC(=O)c2ccc(S(=O)(=O)N3CC(C)CC(C)C3)cc2)o1 (centres undefined)
EC50 (Streptococcus): 21 µM (active) | EC50 (Streptokinase A): > 150 µM (not active) | EC50 [5]: 7.28 µM (active)
